Source: US10316028B2, “Orexin receptor antagonists” (Heptares Therapeutics Limited, priority 2012, dated 2019)

target: T1, human Orexin-2 receptor (Homo sapiens, UniProt O43614); test: 3H-EMPA radioligand binding assay; conditions: 3H-EMPA displacement, membranes of HEK293 cells transfected with human Orexin-2 receptor; KI by Cheng-Prussoff; read-out: OX2 pKi ave (converted)
T1 construct: expressed in transfected cells; host or cells: HEK293 cells (transient transfection, Genejuice); membranes
T1 sequence (O43614 1-444): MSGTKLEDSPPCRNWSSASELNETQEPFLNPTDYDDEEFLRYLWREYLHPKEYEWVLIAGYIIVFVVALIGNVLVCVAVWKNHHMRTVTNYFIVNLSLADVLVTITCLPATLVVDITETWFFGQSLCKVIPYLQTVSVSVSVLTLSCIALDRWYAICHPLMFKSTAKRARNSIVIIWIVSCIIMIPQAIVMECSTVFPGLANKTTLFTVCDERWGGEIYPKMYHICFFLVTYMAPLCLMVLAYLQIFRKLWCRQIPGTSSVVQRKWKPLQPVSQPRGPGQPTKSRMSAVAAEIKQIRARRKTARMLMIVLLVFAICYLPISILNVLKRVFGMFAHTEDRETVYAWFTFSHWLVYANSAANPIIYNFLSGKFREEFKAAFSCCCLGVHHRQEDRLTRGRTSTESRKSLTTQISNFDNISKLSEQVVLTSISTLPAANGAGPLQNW
Procedure, shortened: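 Membranes from HEK293 cells transiently transfected with human orexin-2 receptor cDNA, assayed with [3H]EMPA. Bound ligand collected on PEI-treated GF/B filters and counted by scintillation; IC50 from inhibition curves, Ki by Cheng-Prusoff.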

| SMILES | Ki |
| --- | --- |
| COc1cc(F)c(CN2C(=O)N(c3cnc(OC)c(OC)c3)S(=O)(=O)c3cccnc32)c(F)c1 [Example 165, 4-(2,6-Difluoro-4-methoxybenzyl)-2-(5,6-dimethoxypyridin-3-yl)-2H-pyrido[2,3-e][1,2,4]thiadiazin-3(4H)-one 1,1-dioxide] | 0.676 nM |
| COc1cc(N2C(=O)N(Cc3c(F)cccc3Cl)c3ccccc3S2(=O)=O)cc(OC)n1 [Example 166, 4-(2-Chloro-6-fluorobenzyl)-2-(2,6-dimethoxypyridin-4-yl)-2H-1,2,4-benzothiadiazin-3(4H)-one 1,1-dioxide] | 2.69 nM |
| COc1cc(N2C(=O)N(Cc3c(F)cccc3F)c3ccccc3S2(=O)=O)cc(OC)n1 [Example 167, 4-(2,6-Difluorobenzyl)-2-(2,6-dimethoxypyridin-4-yl)-2H-1,2,4-benzothiadiazin-3(4H)-one 1,1-dioxide] | 2.19 nM |
| COc1ccc(N2C(=O)N(Cc3c(F)cccc3Cl)c3ncccc3S2(=O)=O)nc1OC [Example 168, 4-(2-Chloro-6-fluorobenzyl)-2-(5,6-dimethoxypyridin-2-yl)-2H-pyrido[2,3-e][1,2,4]thiadiazin-3(4H)-one 1,1-dioxide] | 1.23 nM |
| COc1ccc(N2C(=O)N(Cc3c(F)cccc3F)c3ncccc3S2(=O)=O)nc1OC [Example 169, 4-(2,-Difluorobenzyl)-2-(5,6-dimethoxypyridin-2-yl)-2H-pyrido[2,3-e][1,2,4]thiadiazin-3(4H)-one 1,1-dioxide] | 0.851 nM |
| COc1cnc(N2C(=O)N(Cc3c(F)cc(F)cc3F)c3ccccc3S2(=O)=O)nc1OC [Example 170, 2-(4,5-dimethoxypyrimidin-2-yl)-4-(2,4,6-trifluorobenzyl)-2H-1,2,4-benzothiadiazin-3(4H)-one 1,1-dioxide] | 7.24 nM |
| COc1cc(F)c(CN2C(=O)N(c3cnc(OC)c(C)c3)S(=O)(=O)c3ccccc32)c(F)c1 [Example 171, 4-(2,6-difluoro-4-methoxybenzyl)-2-(6-methoxy-5-methylpyridin-3-yl)-2H-1,2,4-benzothiadiazin-3(4H)-one 1,1-dioxide] | 1.78 nM |
| CNc1ccc(N2C(=O)N(Cc3c(F)cc(F)cc3F)c3ncccc3S2(=O)=O)nc1OC [Example 172, 2-[6-methoxy-5-(methylamino)pyridin-2-yl]-4-(2,4,6-trifluorobenzyl)-2H-pyrido[2,3-e][1,2,4]thiadiazin-3(4H)-one 1,1-dioxide] | 7.76 nM |
| COc1cc(F)c(CN2C(=O)N(c3ccc(C)c(C)n3)S(=O)(=O)c3cccnc32)c(F)c1 [Example 173, 4-(2,6-Difluoro-4-methoxybenzyl)-2-(5,6-dimethylpyridin-2-yl)-2H-pyrido[2,3-e][1,2,4]thiadiazin-3(4H)-one 1,1-dioxide] | 2.4 nM |
| COc1cc(F)c(CN2C(=O)N(c3cc(C)cc(C)n3)S(=O)(=O)c3cccnc32)c(F)c1 [Example 174, 4-(2,6-Difluoro-4-methoxybenzyl)-2-(4,6-dimethylpyridin-2-yl)-2H-pyrido[2,3-e][1,2,4]thiadiazin-3(4H)-one 1,1-dioxide] | 7.24 nM |
| COc1cc(F)c(CN2C(=O)N(c3ccc(C)c(OC)n3)S(=O)(=O)c3cccnc32)c(F)c1 [Example 175, 4-(2,6-Difluoro-4-methoxybenzyl)-2-(6-methoxy-5-methylpyridin-2-yl)-2H-pyrido[2,3-e][1,2,4]thiadiazin-3(4H)-one 1,1-dioxide] | 1.35 nM |
| COc1cc(N2C(=O)N(Cc3c(F)cc(F)cc3F)c3ncccc3S2(=O)=O)cnc1C [Example 176, 2-(5-Methoxy-6-methylpyridin-3-yl)-4-(2,4,6-trifluorobenzyl)-2H-pyrido[2,3-e][1,2,4]thiadiazin-3(4H)-one 1,1-dioxide] | 6.46 nM |
| CNc1ncc(N2C(=O)N(Cc3c(F)cc(OC)cc3F)c3ncccc3S2(=O)=O)cc1OC [Example 177, 2-[5-Methoxy-6-(methylamino)pyridin-3-yl]-4-(2,6-difluoro-4-methoxybenzyl)-2H-pyrido[2,3-e][1,2,4]thiadiazin-3(4H)-one 1,1-dioxide] | 2.19 nM |
| COc1cc(F)c(CN2C(=O)N(c3cnc(C)c(C)c3)S(=O)(=O)c3ccccc32)c(F)c1 [Example 178, 4-(2,6-difluoro-4-methoxybenzyl)-2-(5,6-dimethylpyridin-3-yl)-2H-1,2,4-benzothiadiazin-3(4H)-one 1,1-dioxide] | 4.37 nM |
| CNc1nc(N2C(=O)N(Cc3c(F)cc(OC)cc3F)c3ccccc3S2(=O)=O)ccc1OC [Example 179, 4-(2,6-difluoro-4-methoxybenzyl)-2-[5-methoxy-6-(methylamino)pyridin-2-yl]-2H-1,2,4-benzothiadiazin-3(4H)-one 1,1-dioxide] | 3.72 nM |
| COc1cc(N2C(=O)N(Cc3c(F)cc(F)cc3Cl)c3ncccc3S2(=O)=O)cc(OC)n1 [Example 180, 4-(2-Chloro-4,6-difluorobenzyl)-2-(2,6-dimethoxypyridin-4-yl)-2H-pyrido[2,3-e][1,2,4]thiadiazin-3(4H)-one 1,1-dioxide] | 2.04 nM |
| CNc1cc(N2C(=O)N(Cc3c(F)cc(OC)cc3F)c3ccccc3S2(=O)=O)cnc1OC [Example 181, 4-(2,6-difluoro-4-methoxybenzyl)-2-[6-methoxy-5-(methylamino)pyridin-3-yl]-2H-1,2,4-benzothiadiazin-3(4H)-one 1,1-dioxide] | 1.62 nM |
| COc1cc(F)c(CN2C(=O)N(c3ccc4ncsc4c3)S(=O)(=O)c3cccnc32)c(F)c1 [Example 182, 2-(1,3-Benzothiazol-6-yl)-4-(2,6-difluoro-4-methoxybenzyl)-2H-pyrido[2,3-e][1,2,4]thiadiazin-3(4H)-one 1,1-dioxide] | 4.47 nM |
| COc1cc(OC)nc(N2C(=O)N(Cc3c(F)cc(OC)cc3F)c3ccccc3S2(=O)=O)c1 [Example 183, 4-(2,6-difluoro-4-methoxybenzyl)-2-(4,6-dimethoxypyridin-2-yl)-2H-1,2,4-benzothiadiazin-3(4H)-one 1,1-dioxide] | 2.75 nM |
| CNc1ncc(N2C(=O)N(Cc3c(F)cc(OC)cc3F)c3ncccc3S2(=O)=O)cc1C [Example 184, 4-(2,6-Difluoro-4-methoxybenzyl)-2-[5-methyl-6-(methylamino)pyridin-3-yl]-2H-pyrido[2,3-e][1,2,4]thiadiazin-3(4H)-one 1,1-dioxide] | 8.51 nM |
| COc1cc(N2C(=O)N(Cc3c(F)cc(F)cc3Cl)c3ncccc3S2(=O)=O)cnc1OC [Example 185, 4-(2-Chloro-4,6-difluorobenzyl)-2-(5,6-dimethoxypyridin-3-yl)-2H-pyrido[2,3-e][1,2,4]thiadiazin-3(4H)-one 1,1-dioxide] | 4.17 nM |
| CNc1cc(N2C(=O)N(Cc3c(F)cc(OC)cc3F)c3ncccc3S2(=O)=O)cnc1OC [Example 186, 4-(2,6-Difluoro-4-methoxybenzyl)-2-[6-methoxy-5-(methylamino)pyridin-3-yl]-2H-pyrido[2,3-e][1,2,4]thiadiazin-3(4H)-one 1,1-dioxide] | 1.26 nM |
